Measured values taken from article PMC3766616, “Coniferyl Ferulate, a Strong Inhibitor of Glutathione S-Transferase Isolated from Radix Angelicae sinensis, Reverses Multidrug Resistance and Downregulates P-Glycoprotein” (Evidence-based Complementary and Alternative Medicine : eCAM, 2013).

Target: T1, Glutathione S-transferase (mainly GSTP1-1, from human placenta) (Homo sapiens, UniProt P09211)
T1 construct: GST from human placenta (mainly GSTP1-1), Sigma
Experiment: GSH/CDNB conjugation assay at […] nm; Hanes plot kinetics
Format: biochemical

T1 sequence (P09211 2-210): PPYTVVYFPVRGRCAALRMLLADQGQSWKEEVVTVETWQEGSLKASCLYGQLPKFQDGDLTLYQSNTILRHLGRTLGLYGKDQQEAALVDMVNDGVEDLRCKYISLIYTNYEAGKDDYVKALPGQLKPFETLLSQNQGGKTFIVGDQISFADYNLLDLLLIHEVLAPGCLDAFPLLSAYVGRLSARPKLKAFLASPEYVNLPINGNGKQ

IC50: 300 nM
SMILES: COc1cc(/C=C/COC(=O)/C=C/c2ccc(O)c(OC)c2)ccc1O [CF, Coniferyl ferulate]
